Measured values taken from patent US7642252B2, “Angiogenesis inhibition by cephalotaxine alkaloids, derivatives, compositions and uses thereof” (Chemgenex Pharmaceuticals, Inc., priority 2002, dated 2010).
Marks after values point to notes of the source that are not given here.

Key:
[1] = tested on: chorioallantoic membrane (CAM); assay: Early chicken chorioallantoic membrane (CAM) assay of angiogenesis; type: in vivo; conditions: for CAM increase (fold): Day 4 to Day 5
Description: Fertilized chicken eggs (HiChick Breeding Co, Kapunda, South Australia) were incubated for three days at 38° C. On Day 3 the embryos were cracked out of the egg and into a cup made of plastic piping, with plastic film stretched over the top to form a hammock for the egg to be suspended in. Two ml of DMEM containing penicillin and streptomycin was added to each cup prior to the egg being added. A Petri dish on the top maintained sterility. Incubation continued in a humidified 37° C. incubator.
On Day 4 the chorioallantoic membrane (CAM) begins to grow, and pictures were taken of each embryo at ×5 to measure the CAM area using image analysis software (Video Pro 32, Leading Edge Pty Ltd, South Australia). Embryos were then grouped according to their CAM area, with a control embryo in each for comparison. There were four matched embryos, treated with 6.25, 12.5 and 25 ng of homoharringtonine. Grouping is critical as in these early developmental stages changes in the CAM growth are dramatic. Relatively small differences in size on Day 4 translate to large differences in the CAM on Day 5, making it impossible to compare treatments. Substances were applied in methylcellulose discs, which were first dried under vacuum overnight. The methylcellulose discs were applied to the top of the CAM, and at the beginning of treatment were at least three to four-fold bigger than the CAM area, meaning treatment covered the entire CAM surface.
On Day 5 skim milk with contrast medium was injected into the CAM. Pictures were then taken at various levels of magnification up to ×63. Quantitative measurements were made from ×5 pictures. CAM area, and vein and artery lengths were measured using image analysis (Video Pro 32, Leading Edge Pty Ltd, South Australia). Relative vessel lengths were then calculated as the total length/CAM area. Statistical analysis was made using SigmaStat and OneWay ANOVA with p<0.05 as the level of significance.
The normal organization of the CAM is uniform, with the major vein draining towards the left, and the artery branches coming over the edge of the top and bottom of the CAM. FIG. 3 schematically illustrates tracing of the vein and artery branches, as performed for the measurement of vessel lengths.
The angiogenic inhibitor, homoharringtonine, was obtained from ChemGenex Therapeutics, Inc. (Menlo Park, Calif.) and was made to the appropriate concentration in sterile water. […] Homoharringtonine was applied at 6.25, 12.5 and 25 ng (11.3, 22.5 and 45 nM) doses, and compared with water treated controls. Homoharringtonine reduced the growth of the CAM to 42% of the control in the 25 ng treated CAM. […] The vein, artery and total vessel lengths were reduced to 15%, 18% and 17% of control, respectively.

[2] = tested on: chorioallantoic membrane (CAM); assay: as above; type: in vivo; conditions: taxol treated CAM, dose not given
[3] = 6.25 ng, Day 5, mean ± SEM, n = 6
[4] = 25 ng, Day 5, mean ± SEM, n = 6

## COC(=O)C[C@](O)(CCCC(C)(C)O)C(=O)O[C@@H]1C(OC)=C[C@]23CCCN2CCc2cc4c(cc2[C@H]13)OCO4 [Homoharringtonine, cephalotaxine, 4-methyl-2-hydroxy-2-(4-hydroxy-4-methylpentyl) butanediocate ester]
[1]; 6.25 ng, mean ± SEM, n = 6
  CAM increase (fold): 7.0 ± 0.4^a fold
[1]; [3]
  Artery length: 1573 ± 516 pixels
  Relative artery length: 31.6 ± 4.5^ab length/CAM area
  Relative total vessel length: 63.2 ± 7.7^b length/CAM area
  Relative vein length: 31.6 ± 4.6^b length/CAM area
  Vein length: 1482 ± 499 pixels
[1]; 12.5 ng, Day 5, mean ± SEM, n = 6
  Relative artery length: 31.8 ± 3.7^ab length/CAM area
[1]; 25 ng dose
  Embryo lethality: killed one of the smaller embryos
[1]; 25 ng, mean ± SEM, n = 6
  CAM increase (fold): 4.3 ± 0.7^a fold
[1]; [4]
  Artery length: 551 ± 265^a pixels
  Total vessel length: 909 ± 396^a pixels
  Vein length: 359 ± 143^a pixels
[1]; initial doses (higher than 25 ng, not given)
  Embryo lethality: resulted in the death of the embryos

## CC(=O)O[C@H]1C(=O)[C@@]2(C)[C@H]([C@H](OC(=O)c3ccccc3)[C@]3(O)C[C@H](OC(=O)[C@H](O)[C@@H](NC(=O)c4ccccc4)c4ccccc4)C(C)=C1C3(C)C)[C@]1(OC(C)=O)CO[C@@H]1C[C@@H]2O [taxol]
[2]
  Qualitative changes of CAM at higher magnification (FIG. 5): diffuse leakage of the red blood cells outside the vessels and the skeletons of larger vessels with no remaining blood flow
